“Also recorded” adds a separate entry of the source. Like-named read-outs stand apart in the source and are kept apart here.
Legend:
[1] = tested on: Saccharomyces cerevisiae NOD 24; assay: Chequerboard titration test (MIC, FICI) against Saccharomyces cerevisiae NOD 24; type: cell-based; conditions: for Fold reduction in MIC of drug when combined with PHMB: S cerevisiae NOD 24, FIG. 2; for MIC when combined with PHMB: S cerevisiae NOD 24, MIC of the antifungal in combination with PHMB; for FICI / Type of interaction: S cerevisiae NOD 24, antifungal combined with PHMB; for MIC: Saccharomyces cerevisiae, NOD24
Protocol: (§1) In vitro susceptibility of a clinical isolate of Candida albicans, Saccharomyces cerevisiae NOD 24 and S cerevisiae EBY 100 to the combination of the antifungal agent and PHMB was assessed using chequerboard assay. Interaction between the drugs and PHMB, formation of nanoparticles and cellular uptake was also assessed.
(§2) Yeast inoculum was prepared by picking five colonies from 24 hrs grown culture in SGA and mixing in RPMI 1640 with MOPS. The optical density of the mixture was adjusted spectrophotometrically to 1 which is equivalent to 3×10^7 Colony Forming Units of yeast/mi. This suspension was further diluted in RPMI 1640 with MOPS to give final inoculum size of 0.5×10^4 CFU/ml.
(§3) Chequer board titration test was carried out in sterile 96-well plates as per CLSI recommended standard procedure to test the antifungal effect of drugs alone and in combination with PHMB. RPMI 1640 medium buffered with MOPS was used as test medium. Dilutions of drug was prepared the test medium if the stock was made in DMSO and in case of stocks made in water further dilutions of drug was in water itself. Tested concentrations were: nystatin 0.000039 mg/ml to 0.02 mg/ml, amphotericin B 0.032 mg/ml to 0.0000625 mg/ml, berberine 0.01 mg/ml to 0.00002 mg/ml, ketoconazole 0.032 mg/ml to 0.0000625 mg/ml and terbinafine 0.16 mg/ml to 0.00031 mg/ml. Growth control and sterility control was present in all plates. All the plates were prepared in triplicates.
(§4) The plates were sealed with paraffin foil to prevent evaporation and kept at 37° C. for C albicans and 30° C. for S cererevisiae. MIC was recorded visually, aided with Powerwave 340 universal microplate spectrophotometer (Biotek) after 24 hours for C albicans and S cerevisiae NOD 24. […] MIC was defined as the lowest concentration at which there is no visible growth. FICI was used to analyse the drug interactions in vitro and was calculated using the equation given below: […]

[2] = Particle size by dynamic light scattering (DLS); type: physicochemical; conditions: for Average size of particles (DLS): combined with PHMB in the ratio 1:3, PBS
Protocol: Dynamic light scattering (DLS) was used to estimate size of complexes formed. It is based on the principle that by measuring scattered light from particles in motion their size can be determined. […] Particle size was determined using Zetasizer S (Malvern instruments, UK).

[3] = tested on: Saccharomyces cerevisiae EBY 100; assay: Chequerboard titration test (MIC, FICI) against Saccharomyces cerevisiae EBY 100; type: cell-based; conditions: for Fold reduction in MIC of drug when combined with PHMB: S cerevisiae EBY100, FIG. 1; for MIC when combined with PHMB: S cerevisiae EBY 100, MIC of the antifungal in combination with PHMB; for FICI / Type of interaction: S cerevisiae EBY 100, antifungal combined with PHMB; for MIC: Saccharomyces cerevisiae
Protocol: as §1, §2, §3, §4

Candida albicans = assay: Chequerboard titration test (MIC, FICI) against clinical isolate of Candida albicans; type: cell-based; conditions: for Fold reduction in MIC of drug when combined with PHMB: FIG. 3; for MIC when combined with PHMB: MIC of the antifungal in combination with PHMB; for FICI / Type of interaction: antifungal combined with PHMB
Protocol: as §1, §2, §3, §4

[4] = tested on: Candida albicans, Saccharomyces cerevisiae NOD 24 and S cerevisiae EBY 100; conditions: chequerboard assay, organism not specified
Protocol: as §1, §3, §4
Wilcoxon signed rank test was used to statistically analyse changes in MICs of antifungals when combined with PHMB. P value less than 0.05 was considered significant. Statistical analysis was done using SPPSS version 2.0 software.

[5] = S cerevisiae NOD 24, PHMB concentration when combined with the labelled drug
[6] = S cerevisiae NOD 24, RPMI 1640 with MOPS, 30° C., 24 hours
[7] = combined with PHMB in the ratio 1:3
[8] = S cerevisiae EBY 100, PHMB concentration when combined with the labelled drug
[9] = S cerevisiae EBY 100, RPMI 1640 with MOPS, 30° C., 48 hours
[10] = PHMB concentration when combined with the labelled drug
[11] = RPMI 1640 with MOPS, 37° C., 24 hours
[12] = S cerevisiae NOD 24, PHMB concentration when combined with the labelled drug, read-out: MIC of PHMB with antifungals
[13] = S cerevisiae NOD 24, RPMI 1640 with MOPS, 30° C., 24 hours, read-out: MIC of antifungals alone
[14] = EBY100, S cerevisiae EBY 100, RPMI 1640 with MOPS, 30° C., 48 hours, read-out: MIC of antifungals alone
[15] = PHMB concentration when combined with the labelled drug, read-out: MIC of PHMB with antifungals
[16] = RPMI 1640 with MOPS, 37° C., 24 hours, read-out: MIC of antifungals alone

Compound	Fold reduction in MIC of drug when combined with PHMB [1] [fold]	MIC when combined with PHMB ([1]; 30° C., 24 hours) [µg/mL]	MIC of PHMB with antifungals [1, 5] [µg/mL]	MIC of antifungals alone [1, 6] [µg/mL]	FICI [1]	Type of interaction [1]	Nanoparticles with PHMB observed or not (DLS) [2, 7]	Fold reduction in MIC of drug when combined with PHMB [3] [fold]	MIC when combined with PHMB ([3]; 30° C., 48 hours) [µg/mL]	MIC of PHMB with antifungals [3, 8] [µg/mL]	FICI [3]	Type of interaction [3]	Fold reduction in MIC of drug when combined with PHMB (Candida albicans) [fold]	MIC when combined with PHMB (Candida albicans; 37° C., 24 hours) [µg/mL]	FICI (Candida albicans)	Type of interaction (Candida albicans)	Interaction with PHMB (synergy), in words [4]	MIC [1, 12] [µg/mL]	MIC [1, 13] [µg/mL]	MIC (Candida albicans; [15]) [µg/mL]	also measured
C[C@@H]1[C@H](O)[C@@H](C)/C=C/C=C/C=C/C=C/C=C/C=C/C=C/[C@H](O[C@@H]2O[C@H](C)[C@@H](O)[C@H](N)[C@@H]2O)C[C@@H]2O[C@](O)(C[C@@H](O)C[C@@H](O)[C@H](O)CC[C@@H](O)C[C@@H](O)CC(=O)O[C@H]1C)C[C@H](O)[C@H]2C(=O)O [Amphotericin B]	16	0.25	0.5	4	0.56	No interaction (>0.5 but ≤4 is ‘no interaction’)	Nanoparticles were not detected	4	4	0.5	0.5	Synergistic (FICI≤0.5 is ‘synergistic effect’)	2	0.5	0.53	No interaction (>0.5 but ≤4 is ‘no interaction’)	Synergistic effect	–	–	–	MIC of antifungals alone [3, 9]: 16 µg/mL; Type of interaction ([3]; listed as amphotericin B): synergy; MIC of PHMB with antifungals (Candida albicans; [10]): 0.031 µg/mL; MIC of antifungals alone (Candida albicans; [11]): 1 µg/mL
COc1ccc2cc3[n+](cc2c1OC)CCc1cc2c(cc1-3)OCO2 [Berberine]	16	0.56	–	–	0.56	No interaction (>0.5 but ≤4 is ‘no interaction’)	Nanoparticles were observed	2	25	–	0.75	No interaction (>0.5 but ≤4 is ‘no interaction’)	2	31.25	0.53	No interaction (>0.5 but ≤4 is ‘no interaction’)	–	0.5	50	0.031	Share of particles around 22.2±1.5 nm ([2]; combined with PHMB 1:3): 64.5%; Average size of particles (DLS) [2]: 22.22±1.591 nm; Average size of particles (DLS) ([2]; listed as berberine): around 22.2±1.5 nm; MIC ([3]; EBY100, S cerevisiae EBY 100, PHMB concentration when combined with the labelled drug, read-out: MIC of PHMB with antifungals): 0.5 µg/mL; MIC [3, 14]: 50 µg/mL
C[C@@H]1[C@H](O)[C@@H](C)/C=C/C=C/CC/C=C/C=C/C=C/C=C/C(O[C@H]2O[C@H](C)[C@@H](O)[C@H](N)[C@@H]2O)CC2O[C@](O)(CC(O)C(O)CCC(O)CC(O)CC(O)CC(=O)O[C@H]1C)CC(O)C2C(=O)O (stereo partly shown) [Nystatin]	4	0.625	0.5	2.5	0.75	No interaction (>0.5 but ≤4 is ‘no interaction’)	Nanoparticles were not detected	2	2.5	0.062	0.53	No interaction (>0.5 but ≤4 is ‘no interaction’)	2	2.5	1	No interaction (>0.5 but ≤4 is ‘no interaction’)	–	–	–	–	MIC of antifungals alone [3, 9]: 5 µg/mL; MIC of PHMB with antifungals (Candida albicans; [10]): 0.5 µg/mL; MIC of antifungals alone (Candida albicans; [11]): 5 µg/mL
CC(=O)N1CCN(c2ccc(OCC3COC(Cn4ccnc4)(c4ccc(Cl)cc4Cl)O3)cc2)CC1 (stereo not shown) [Ketoconazole]	4	1	–	–	0.5	Synergistic (FICI≤0.5 is ‘synergistic effect’)	Nanoparticles were observed	4	0.31	–	0.263	Synergistic (FICI≤0.5 is ‘synergistic effect’)	4	1	0.281	Synergistic (FICI≤0.5 is ‘synergistic effect’)	Strong synergism; also recorded: Synergistic effect	0.5	16	0.062	Polydispersity index ([2]; combined with PHMB 1:3): > 1; Share of particles of size less than 10 nm ([2]; combined with PHMB 1:3): less than 10%; Peak 1 Average size (DLS) [2, 7]: 1.15±0.017; Peak 2 Average size (DLS) [2, 7]: 5.88±0.71; Peak 3 Average size (DLS) [2, 7]: 498.9±65.2; MIC ([3]; EBY100, 48 h, read-out: MIC of antifungals alone): 1.25 µg/mL; MIC (Candida albicans; [16]): 4 µg/mL
CN(C/C=C/C#CC(C)(C)C)Cc1cccc2ccccc12 [Terbinafine]	16	2.5	–	–	0.312	Synergistic (FICI≤0.5 is ‘synergistic effect’)	–	8	2.5	–	0.14	Synergistic (FICI≤0.5 is ‘synergistic effect’)	4	1	0.5	Synergistic (FICI≤0.5 is ‘synergistic effect’)	Strong synergism; also recorded: Synergistic effect	0.062	4	0.5	MIC [3, 14]: 20 µg/mL; MIC (Candida albicans; [16]): 4 µg/mL
